A word on the EC50: it is the concentration at which the effect is half-maximal. Low readings indicate an effect from little substance, high ones a need for much substance.

These results are taken from BindingDB's records for doi:10.7270/Q2VQ313H (Nmmlsc, 2008).

The target of the test is Estrogen receptor beta (Homo sapiens, UniProt Q92731). As to the kind of experiment: ERbeta binders displacing fluorescent estradiol, dose response, cell-based, Cos7 ERbeta-GFP, E2-Alexa633, flow cytometry (AID 1221). Background: In flow cytometry, cells or beads pass a laser one at a time.
Chain of Estrogen receptor beta (Q92731 whole entry): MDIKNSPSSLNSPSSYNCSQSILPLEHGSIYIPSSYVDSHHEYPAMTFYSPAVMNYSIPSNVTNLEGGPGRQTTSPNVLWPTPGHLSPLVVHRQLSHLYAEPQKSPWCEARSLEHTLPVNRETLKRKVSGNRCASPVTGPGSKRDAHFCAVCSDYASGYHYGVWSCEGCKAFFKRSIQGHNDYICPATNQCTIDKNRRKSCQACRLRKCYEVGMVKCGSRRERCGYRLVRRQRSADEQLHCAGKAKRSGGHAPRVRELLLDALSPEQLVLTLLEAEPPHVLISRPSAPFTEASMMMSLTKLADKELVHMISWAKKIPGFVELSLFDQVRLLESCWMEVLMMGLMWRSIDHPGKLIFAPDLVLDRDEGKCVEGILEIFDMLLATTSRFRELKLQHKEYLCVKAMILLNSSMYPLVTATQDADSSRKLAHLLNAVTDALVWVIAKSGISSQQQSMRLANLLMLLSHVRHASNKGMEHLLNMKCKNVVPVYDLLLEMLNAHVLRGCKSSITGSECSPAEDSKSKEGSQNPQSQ
Setting [1] is: inactive by the depositor's call.

Each structure is given as a SMILES string. Counter-ions that a name gives are not always drawn.

Turning to `COc1ccc(NS(=O)(=O)c2ccc3c(c2)[C@H]2C=CC[C@H]2[C@@H](c2ccc(C(=O)O)cc2)N3)cc1`, the response under setting [1] was half-maximal at 2280 nM (EC50). This counts as single-digit micromolar. `Nc1ccc(-c2nc3cc([N+](=O)[O-])ccc3[nH]2)cc1` yielded an EC50 under setting [1] of 2350 nM. `CC(=O)c1ccc2c(c1)[C@@H]1C=CC[C@@H]1[C@H](c1cc3c(cc1Br)OCO3)N2` had an EC50 of 184 nM. In other words, the sub-micromolar range. Still for that read-out and setting: with `CC(=O)c1ccc2c(c1)C1C=CCC1C(c1cccc([N+](=O)[O-])c1)N2` (centres undefined) [1-[4-(3-nitrophenyl)-3a,4,5,9b-tetrahydro-3H-cyclopenta[c]quinolin-8-yl]ethanone] the figure was more than 10000 nM; with `COc1ccccc1N1CCN(C(=O)c2ccc3nc(-c4ccco4)c(-c4ccco4)nc3c2)CC1` [2,3-di-2-furyl-6-{[4-(2-methoxyphenyl)piperazin-1-yl]carbonyl}quinoxaline], 0.87 nM.

For the compound `O=C(OCC(=O)N1CCN(C(=O)c2ccco2)CC1)c1cc(-c2ccco2)nc2ccccc12` [2-(2-furanyl)-4-quinolinecarboxylic acid [2-[4-[2-furanyl(oxo)methyl]-1-piperazinyl]-2-oxoethyl] ester], the half-maximal effective concentration (EC50) under setting [1] turned out to be 16.3 nM. In other words, the double-digit nanomolar range. Take `O=C(Nc1cc(C(F)(F)F)ccc1N1CCOCC1)C1Cc2ccccc2CN1C(=O)c1ccco1` (centres undefined) [2-(2-furoyl)-N-[2-morpholino-5-(trifluoromethyl)phenyl]-3,4-dihydro-1H-isoquinoline-3-carboxamide]: a half-maximal effect (EC50) was put at 1260 nM.

For the compound `CCn1nnc(NC(=O)CSc2ccc(Cl)cc2)n1` [2-(4-chlorophenyl)sulfanyl-N-(2-ethyl-1,2,3,4-tetrazol-5-yl)ethanamide], the 50% effective concentration (EC50) was more than 10000 nM. On the same count and under the same terms, under `CCc1ccc(-c2nn(-c3ccccc3)cc2CSC(=N)N)cc1` [2-[[3-(4-ethylphenyl)-1-phenyl-pyrazol-4-yl]methyl]isothiourea;hydrochloride] stands 39.9 nM. Regarding `Cc1cc(-c2nn3c(-c4ccccc4)nnc3s2)c2ccccc2n1` [2-methyl-4-(3-phenyl[1,2,4]triazolo[3,4-b][1,3,4]thiadiazol-6-yl)quinoline], under setting [1], a half-maximal response (EC50) required 4180 nM. Consider `CCCCOC(=O)c1c(C)oc2ccc(NS(=O)(=O)c3ccc4c5c(cccc35)C(=O)N4)cc12` [2-methyl-5-[(2-oxo-1H-benzo[cd]indol-6-yl)sulfonylamino]-3-benzofurancarboxylic acid butyl ester], for which the EC50 under setting [1] was determined as 83.7 nM. On the same count and under the same terms, under `Cc1oc2cc(O)ccc2c(=O)c1Oc1ccccc1` [2-methyl-7-oxidanyl-3-phenoxy-chromen-4-one] stands 438 nM. Turning to `CC(=O)Oc1ccc(C2Nc3c(C(=O)O)ccc([N+](=O)[O-])c3C3C=CCC32)cc1` (centres undefined) [4-(4-acetoxyphenyl)-9-nitro-3a,4,5,9b-tetrahydro-3H-cyclopenta[c]quinoline-6-carboxylic acid], the concentration giving a half-maximal response (EC50) is more than 10000 nM. Same read-out and setting: with `O=C(COC(=O)CCC(=O)c1cccs1)NCc1ccco1` [4-keto-4-(2-thienyl)butyric acid [2-(2-furfurylamino)-2-keto-ethyl] ester] the figure was 1.74 nM. As to `Cc1ccc(C(=O)N/N=C/c2ccc([N+](=O)[O-])s2)cc1` [4-methyl-N-[(5-nitro-2-thiophenyl)methylideneamino]benzamide], the EC50 under setting [1] was 70.7 nM. The compound `Nc1ncnc2c1ncn2C1CCC(CO)C(O)C1` (centres undefined) [5-(6-aminopurin-9-yl)-2-(hydroxymethyl)-1-cyclohexanol] returned an EC50 of 2.14 nM.

`O=C(c1cc2ncc(Br)cn2n1)N1CCN(C(=O)c2ccco2)CC1` [6-bromo-2-{[4-(2-furoyl)-1-piperazinyl]carbonyl}pyrazolo[1,5-a]pyrimidine] had an EC50 of 2.73 nM. Still for that read-out and setting: with `O=C(O)c1ccc([N+](=O)[O-])c2c1NC(c1ccccc1)C1CC=CC21` (centres undefined) [9-nitro-4-phenyl-3a,4,5,9b-tetrahydro-3H-cyclopenta[c]quinoline-6-carboxylic acid] the figure was 0.65 nM. The compound `Cc1cc(C)c2c(c1)[C@@H]1C=CC[C@@H]1[C@H](c1ccc(S(=O)(=O)N3CCOCC3)cc1)N2` [(3aS,4R,9bR)-6,8-dimethyl-4-[4-(morpholin-4-ylsulfonyl)phenyl]-3a,4,5,9b-tetrahydro-3H-cyclopenta[c]quinoline] came in with a half-maximal effective concentration (EC50) under setting [1] of 165 nM.

`O=C(O)c1cc(Cl)c2c(c1)[C@@H]1C=CC[C@@H]1[C@H](c1ccc(S(=O)(=O)N3CCOCC3)cc1)N2` [(3aS,4R,9bR)-6-chloranyl-4-(4-morpholin-4-ylsulfonylphenyl)-3a,4,5,9b-tetrahydro-3H-cyclopenta[c]quinoline-8-carboxylic acid] displayed an EC50 under setting [1] of 729 nM.

The compound `C[C@]12CC[C@@H]3c4ccc(O)cc4C(=O)C[C@H]3[C@@H]1CC[C@@H]2O` [(8R,9S,13S,14S,17S)-13-methyl-3,17-bis(oxidanyl)-8,9,11,12,14,15,16,17-octahydro-7H-cyclopenta[a]phenanthren-6-one] returned a concentration giving a half-maximal response (EC50) under setting [1] of 38.1 nM. Take `CCC(=O)Oc1ccc(C(CC)C(CC)c2ccc(OC(=O)CC)cc2)cc1` (centres undefined) [HEXESTROL DIPROPIONATE]: the 50% effective concentration (EC50) was 7.69 nM. This lies in the single-digit nanomolar range. Regarding `COc1ccc(CNC(=O)c2cc(-c3cccs3)on2)cc1` [MLS000087249], the EC50 under setting [1] turned out to be 99.4 nM. In other words, the double-digit nanomolar range. `O=C1C=C/C(=C2/Nc3ccc4ccccc4c3C3=C2CCC3)C=C1O` [SMR000184811] came in with a concentration giving a half-maximal response (EC50) of more than 10000 nM.
